# B1: IL-6: recombinant mouse IL-6 (R&D #406-ML-005) (protein, UniProt P08505 25-211, looked up)
# Interleukin-6: FPTSQVRRGDFTEDTTPNRPVYTTSQVGGLITHVLWEIVEMRKELCNGNSDCMNNDDALAENNLKLPEIQRNDGCYQTGYNQEICLLKISSGLLEYHSYLEYMKNNLKDNKKDKARVLQRDTETLIHIFNQEVKDLHKIVLPTPISNALLTDKLESQKEWLRTKTIQFILKSLEEFLKVTLRSTRQT
# Experiments:
# CD8+ splenocytes = conditions: ex-vivo, 1 mM ammonia, WT mice
# Description: Activation of T cells from mice spleens: 10 weeks old WT female Balb/c mice were sacrificed and spleen harvested into cold-PBS on ice. Spleens were homogenized by syringe plunger through 70 uM strainer and washed with PBS. Following centrifugation at 1200 rpm for 5 min pellets were treated with RBC lysis buffer according to the manufacturer's instruction. Cells were resuspended in 2×10^6 cells/ml in splenocytes medium (complete RPMI medium supplemented with 50 μM β-mercaptoethanol, […] and Non-essential amino acids) supplemented with 6,000 IU/mL IL-2 (Chiron, rhIL2) and seeded in 24 well plates pre-coated with CD3 (BLG #100302). Following 72 h, cells were collected, centrifuged at 1200 rpm for 5 min, washed with splenocytes medium×2, and analyzed using CytoFLEX (Beckman Coulter) FACS analyzer.
# STAT3 = biological target: T1, STAT3 (Mus musculus, UniProt P42227); assay: STAT3 inhibitor in IL-6-treated primary hepatocytes, OTC RT-PCR; assay type: cell-based; conditions: 10 μM inhibitor 30 min then IL-6 48 h
# T1 construct: endogenous in cells; host or cells: primary mouse hepatocytes isolated by liver perfusion
# Description: Primary hepatocytes culture: Following perfusion, 1×10^6 isolated hepatocytes were seeded in 3 ml Williams E+Glutamx-TM-1 in 6 well plate. Four hours after, the medium was aspirated, and the cells were washed with PBS and incubated with 2 ml Williams E+Glutamx-TM-1 overnight. Cells were treated with 10 μM of HJC0152 STAT3 inhibitor (Selleckchem #58561), for 30 minutes cells and then treated with 10 ng/ml recombinant mouse IL-6 (R&D #406-ML-005) for 48 h.
# RNA processing and quantitative PCR: RNA was extracted from liver tissue by using QIAzol Lysis Reagent (according to QIAzol® Handbook) or by Direct-zol™ MiniPrep Plus Kit (Zymo Research ZR-R2070). For hepatocytes RNA sequencing, RNA was extracted from dissociated hepatocytes. Following liver perfusion as previously described, hepatocytes were resuspended in QIAzol and frozen in −80° C. RNA was extracted by using QIAzol Lysis Reagent. RNA from cultured primary hepatocytes was extracted by using RNeasy Mini Kit (QIAGENe #74104). To evaluate mtDNA copy number, total DNA was isolated using DNA purification kit (DNeasy Blood & Tissue Kits Qiagen #69504). cDNA was synthesized from […] RNA by using qScript cDNA Synthesis Kit (Quanta #95749). Detection on cDNAs was performed using Syber Green Fast mix Perfect CT (Quantabio #95073) with the required primers (qPCR primer list—Table 1)
# primary hepatocytes = assay: IL-6 supplementation of primary hepatocytes, RT-PCR; assay type: cell-based, mouse
# Description: Liver Perfusions and hepatocytes dissociation: Livers of anaesthetized mice were perfused, with specific adjustments. The vena cava was inserted with 27 G syringe, fixed on the perfusion line. 10 ml of pre-warmed to 42° C. PPML buffer followed by 25 ml of pre-warmed to 42′C PM buffer with Liberase (Roche, cat #05401127001) were perfused through the vena cava. Immediately at the beginning of the perfusion, the portal vein was cut. Following perfusion of 25 ml of PM buffer and Liberase solution, livers were harvested into a Petri dish with 10 ml of pre-warmed PM buffer and chopped by forceps. Dissociated liver cells were collected and filtered through a slanted 100 um cell strainer. Cells were spin down at 30 g for 3 min at 4° C. to get hepatocytes enriched pellet. Pellet was resuspended in […] cold PM buffer. To enrich live hepatocytes, 21.6 ml cold Percoll (G.E. Healthcare #17-0891-01) mixed with +2.4 ml DPBSX10+CaCl2)+MgCl2 was added to the cells. Cells were centrifuged at 600 rpm for 10 minutes at 4° C. Supernatant containing the dead cells was aspirated, and cells were resuspended in 25 ml of cold Williams E+Glutamx-TM-1 (Gibco, cat #32551, 1% penstrep, 1% FBS, 1% L-Glutamine). […]
# RNA processing and quantitative PCR: RNA was extracted from liver tissue by using QIAzol Lysis Reagent (according to QIAzol® Handbook) or by Direct-zol™ MiniPrep Plus Kit (Zymo Research ZR-R2070). […]
# T1 sequence (P42227 whole entry, the tested form may be a part): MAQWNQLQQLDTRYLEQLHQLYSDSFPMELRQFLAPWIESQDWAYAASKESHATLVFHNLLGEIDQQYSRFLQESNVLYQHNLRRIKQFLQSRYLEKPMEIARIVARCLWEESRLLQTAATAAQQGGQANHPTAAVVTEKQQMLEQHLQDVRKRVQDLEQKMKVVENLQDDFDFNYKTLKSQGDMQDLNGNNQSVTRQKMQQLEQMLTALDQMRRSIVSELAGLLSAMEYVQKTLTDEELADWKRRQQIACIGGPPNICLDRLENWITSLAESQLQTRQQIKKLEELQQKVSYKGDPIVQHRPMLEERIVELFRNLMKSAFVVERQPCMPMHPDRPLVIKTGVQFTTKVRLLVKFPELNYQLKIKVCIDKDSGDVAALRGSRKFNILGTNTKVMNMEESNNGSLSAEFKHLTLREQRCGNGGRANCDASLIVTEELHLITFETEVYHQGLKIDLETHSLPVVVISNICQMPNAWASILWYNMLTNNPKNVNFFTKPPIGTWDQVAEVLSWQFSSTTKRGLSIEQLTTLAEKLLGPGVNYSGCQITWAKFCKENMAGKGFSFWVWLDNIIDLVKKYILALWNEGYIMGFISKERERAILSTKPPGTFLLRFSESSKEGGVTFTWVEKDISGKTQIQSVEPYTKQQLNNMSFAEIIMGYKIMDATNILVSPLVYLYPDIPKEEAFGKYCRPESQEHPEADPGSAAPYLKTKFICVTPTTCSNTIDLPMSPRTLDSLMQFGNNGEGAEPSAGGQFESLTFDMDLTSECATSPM
molecule,measurement,setting,value
N [ammonia],activation of T-cells splenocytes,CD8+ splenocytes,reduced
same,survival of T-cells splenocytes,CD8+ splenocytes,reduced
NCCOc1ccc(Cl)cc1C(=O)Nc1ccc([N+](=O)[O-])cc1Cl [HJC0152],OTC expression levels in the presence of IL-6,STAT3,rescued
same,OTC expression levels in the presence of IL-6,STAT3; listed as HJCO152,restores
B1,RNA expression levels of OTC,"primary hepatocytes; 10 ng/ml recombinant mouse IL-6, 48 h",decreased
same,CCL2 RNA levels,primary hepatocytes; IL-6 supplementation,increased
